Assay results taken from PubChem BioAssay AID1963836 (Molecular Pharmacology Branch, DTP, NCI, 2024).

Test system: 857933-349-R-J2-PDC complex spheroid viability
Test: Anticancer human tumor 857933-349-R-J2-PDC patient-derived colon adenocarcinoma cell line growth inhibition [POLQ]
Conditions: for IC50: curve of first compound; for viability, T/C: stronger effect = lower value
Procedure, shortened: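 Growth inhibition in 3D: complex spheroids (tumor PDC, HUVEC, MSC) treated with POLQ inhibitor combinations; where Cmax unknown, highest tested concentration 10 microM, except SN-38 at 1 microM.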

[1] = second compound 0.0316 µM, first compound 0.0316 µM
[2] = second compound 0.0316 µM, first compound 0.1 µM
[3] = second compound 0.0316 µM, first compound 0.316 µM
[4] = second compound 0.0316 µM, first compound 1 µM
[5] = second compound 0.0316 µM, first compound 3.16 µM
[6] = second compound 0.0316 µM, first compound 10 µM
[7] = second compound 0.1 µM, first compound 0.0316 µM
[8] = second compound 0.1 µM, first compound 0.1 µM
[9] = second compound 0.1 µM, first compound 0.316 µM
[10] = second compound 0.1 µM, first compound 1 µM
[11] = second compound 0.1 µM, first compound 3.16 µM
[12] = second compound 0.1 µM, first compound 10 µM
[13] = second compound 0.316 µM, first compound 0.0316 µM
[14] = second compound 0.316 µM, first compound 0.1 µM
[15] = second compound 0.316 µM, first compound 0.316 µM
[16] = second compound 0.316 µM, first compound 1 µM
[17] = second compound 0.316 µM, first compound 3.16 µM
[18] = second compound 0.316 µM, first compound 10 µM
[19] = second compound 1 µM, first compound 0.0316 µM
[20] = second compound 1 µM, first compound 0.1 µM
[21] = second compound 1 µM, first compound 0.316 µM
[22] = second compound 1 µM, first compound 1 µM
[23] = second compound 1 µM, first compound 3.16 µM
[24] = second compound 1 µM, first compound 10 µM
[25] = second compound 3.16 µM, first compound 0.0316 µM
[26] = second compound 3.16 µM, first compound 0.1 µM
[27] = second compound 3.16 µM, first compound 0.316 µM
[28] = second compound 3.16 µM, first compound 1 µM
[29] = second compound 3.16 µM, first compound 3.16 µM
[30] = second compound 3.16 µM, first compound 10 µM
[31] = second compound 10 µM, first compound 0.0316 µM
[32] = second compound 10 µM, first compound 0.1 µM
[33] = second compound 10 µM, first compound 0.316 µM
[34] = second compound 10 µM, first compound 1 µM
[35] = second compound 10 µM, first compound 3.16 µM
[36] = second compound 10 µM, first compound 10 µM
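Further: spheroids exposed to compounds for seven days before readout.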

Work on CC1COCCN1c1cc(C2(O)CC3CCC(C2)O3)c2cnn(-c3ccn[nH]3)c2n1 (stereo not drawn) + Cc1cccc(N(C)C(=O)C2C(O)CCN2c2nc(C)cc(C(F)(F)F)c2C#N)c1 yielded an IC50 (second compound 0.0316 µM) of 247 nM, an IC50 (second compound 0.1 µM) of 365 nM and an IC50 (second compound 0.316 µM) of 291 nM. The IC50 (second compound 1 µM) was 202 nM, the IC50 (second compound 3.16 µM) was 268 nM and the IC50 (second compound 10 µM) was 231 nM. The viability, T/C [1] was 73.2%, the viability, T/C [2] was 56.1% and the viability, T/C [3] was 50.3%. It also gave a viability, T/C [4] of 41.7%, a viability, T/C [5] of 42.7% and a viability, T/C [6] of 43.6%. It also gave a viability, T/C [7] of 60.5%, a viability, T/C [8] of 62.9% and a viability, T/C [9] of 50.1%. It also gave a viability, T/C [10] of 38.3%, a viability, T/C [11] of 50.1% and a viability, T/C [12] of 59.1%. The viability, T/C [13] was 76.4%, the viability, T/C [14] was 69.9% and the viability, T/C [15] was 48.4%. For the same compound, the viability, T/C [16] was 45.9%, the viability, T/C [17] was 41.3% and the viability, T/C [18] was 48.7%. The viability, T/C [19] was 67.1%, the viability, T/C [20] was 59.5% and the viability, T/C [21] was 38.4%. For the same compound, the viability, T/C [22] was 43.4%, the viability, T/C [23] was 46.6% and the viability, T/C [24] was 47.5%. The viability, T/C [25] was 60.5%, the viability, T/C [26] was 62.5% and the viability, T/C [27] was 47.6%. It also gave a viability, T/C [28] of 41.1%, a viability, T/C [29] of 54.4% and a viability, T/C [30] of 49.3%. The viability, T/C [31] was 56.3%, the viability, T/C [32] was 55.9% and the viability, T/C [33] was 50.5%. For the same compound, the viability, T/C [34] was 36.9%, the viability, T/C [35] was 51.7% and the viability, T/C [36] was 40.1%.

With O=C(Nc1ccc(O)c(NS(=O)(=O)c2ccc(F)cc2)c1)c1ccc(-c2ccccc2)cc1 + Cc1cccc(N(C)C(=O)C2C(O)CCN2c2nc(C)cc(C(F)(F)F)c2C#N)c1 the IC50 (second compound 0.0316 µM) was > 10000 nM, the IC50 (second compound 0.1 µM) was > 10000 nM and the IC50 (second compound 0.316 µM) was > 10000 nM. For the same compound, the IC50 (second compound 1 µM) was > 10000 nM, the IC50 (second compound 3.16 µM) was > 10000 nM and the IC50 (second compound 10 µM) was > 10000 nM. For the same compound, the viability, T/C [1] was 90.2%, the viability, T/C [2] was 85.2% and the viability, T/C [3] was 88.2%. The viability, T/C [4] was 90.6%, the viability, T/C [5] was 90.3% and the viability, T/C [6] was 92.5%. For the same compound, the viability, T/C [7] was 97.7%, the viability, T/C [8] was 86.2% and the viability, T/C [9] was 87%. The viability, T/C [10] was 97.5%, the viability, T/C [11] was 91.9% and the viability, T/C [12] was 90.8%. The viability, T/C [13] was 97.7%, the viability, T/C [14] was 85.5% and the viability, T/C [15] was 97.8%. The viability, T/C [16] was 93.4%, the viability, T/C [17] was 88.9% and the viability, T/C [18] was 70.8%. It also gave a viability, T/C [19] of 99.1%, a viability, T/C [20] of 82% and a viability, T/C [21] of 96.8%. The viability, T/C [22] was 95.4%, the viability, T/C [23] was 114% and the viability, T/C [24] was 93%. The viability, T/C [25] was 97.9%, the viability, T/C [26] was 95.9% and the viability, T/C [27] was 97.6%. The viability, T/C [28] was 93.4%, the viability, T/C [29] was 96.8% and the viability, T/C [30] was 77.7%. The viability, T/C [31] was 95.3%, the viability, T/C [32] was 105% and the viability, T/C [33] was 91%. The viability, T/C [34] was 90%, the viability, T/C [35] was 88.6% and the viability, T/C [36] was 73.8%.

With CC(=O)O[C@H]1C(=O)[C@@]2(C)[C@H]([C@H](OC(=O)c3ccccc3)[C@]3(O)C[C@H](OC(=O)[C@H](O)[C@@H](NC(=O)c4ccccc4)c4ccccc4)C(C)=C1C3(C)C)[C@]1(OC(C)=O)CO[C@@H]1C[C@@H]2O + Nc1ccc(C#CCN(C(=O)Cc2ncc(C(F)(F)F)cc2C(F)(F)F)c2ccc(F)cc2)nn1 the IC50 (second compound 0.0316 µM) was < 9.49 nM, the IC50 (second compound 0.1 µM) was < 9.49 nM and the IC50 (second compound 0.316 µM) was 12.8 nM. The IC50 (second compound 1 µM) was 11.2 nM, the IC50 (second compound 3.16 µM) was 9.73 nM and the IC50 (second compound 10 µM) was 11.3 nM. It also gave a viability, T/C (second compound 0.0316 µM, first compound 0.00949 µM) of 45%, a viability, T/C (second compound 0.0316 µM, first compound 0.03 µM) of 20.3% and a viability, T/C (second compound 0.0316 µM, first compound 0.0949 µM) of 13.2%. The viability, T/C (second compound 0.0316 µM, first compound 0.3 µM) was 10.6%, the viability, T/C (second compound 0.0316 µM, first compound 0.949 µM) was 12.3% and the viability, T/C (second compound 0.0316 µM, first compound 3 µM) was 15.7%. It also gave a viability, T/C (second compound 0.1 µM, first compound 0.00949 µM) of 45.8%, a viability, T/C (second compound 0.1 µM, first compound 0.03 µM) of 22.9% and a viability, T/C (second compound 0.1 µM, first compound 0.0949 µM) of 10.2%. The viability, T/C (second compound 0.1 µM, first compound 0.3 µM) was 15.6%, the viability, T/C (second compound 0.1 µM, first compound 0.949 µM) was 11.8% and the viability, T/C (second compound 0.1 µM, first compound 3 µM) was 15.2%. It also gave a viability, T/C (second compound 0.316 µM, first compound 0.00949 µM) of 58.1%, a viability, T/C (second compound 0.316 µM, first compound 0.03 µM) of 27.4% and a viability, T/C (second compound 0.316 µM, first compound 0.0949 µM) of 12.8%. For the same compound, the viability, T/C (second compound 0.316 µM, first compound 0.3 µM) was 14.9%, the viability, T/C (second compound 0.316 µM, first compound 0.949 µM) was 15.1% and the viability, T/C (second compound 0.316 µM, first compound 3 µM) was 17.1%. The viability, T/C (second compound 1 µM, first compound 0.00949 µM) was 54.5%, the viability, T/C (second compound 1 µM, first compound 0.03 µM) was 24.8% and the viability, T/C (second compound 1 µM, first compound 0.0949 µM) was 14.6%. The viability, T/C (second compound 1 µM, first compound 0.3 µM) was 14%, the viability, T/C (second compound 1 µM, first compound 0.949 µM) was 17.4% and the viability, T/C (second compound 1 µM, first compound 3 µM) was 14.8%. It also gave a viability, T/C (second compound 3.16 µM, first compound 0.00949 µM) of 50.6%, a viability, T/C (second compound 3.16 µM, first compound 0.03 µM) of 20.1% and a viability, T/C (second compound 3.16 µM, first compound 0.0949 µM) of 16.1%. For the same compound, the viability, T/C (second compound 3.16 µM, first compound 0.3 µM) was 11.7%, the viability, T/C (second compound 3.16 µM, first compound 0.949 µM) was 17.3% and the viability, T/C (second compound 3.16 µM, first compound 3 µM) was 18.6%. The viability, T/C (second compound 10 µM, first compound 0.00949 µM) was 54.2%, the viability, T/C (second compound 10 µM, first compound 0.03 µM) was 26.5% and the viability, T/C (second compound 10 µM, first compound 0.0949 µM) was 16.8%. For the same compound, the viability, T/C (second compound 10 µM, first compound 0.3 µM) was 14.9%, the viability, T/C (second compound 10 µM, first compound 0.949 µM) was 14.5% and the viability, T/C (second compound 10 µM, first compound 3 µM) was 20.3%.

COc1cc(C2c3cc4c(cc3C(OC3OC5COC(C)OC5C(O)C3O)C3COC(=O)C23)OCO4)cc(OC)c1O (stereo not drawn) + Nc1ccc(C#CCN(C(=O)Cc2ncc(C(F)(F)F)cc2C(F)(F)F)c2ccc(F)cc2)nn1 was tested, and the IC50 (second compound 0.0316 µM) was 1290 nM, the IC50 (second compound 0.1 µM) was 747 nM and the IC50 (second compound 0.316 µM) was 567 nM. The IC50 (second compound 1 µM) was 532 nM, the IC50 (second compound 3.16 µM) was 512 nM and the IC50 (second compound 10 µM) was 599 nM. For the same compound, the viability, T/C [1] was 97.1%, the viability, T/C [2] was 64.8% and the viability, T/C [3] was 64.5%. It also gave a viability, T/C [4] of 64%, a viability, T/C [5] of 38% and a viability, T/C [6] of 25.9%. For the same compound, the viability, T/C [7] was 92.5%, the viability, T/C [8] was 72.5% and the viability, T/C [9] was 53.6%. For the same compound, the viability, T/C [10] was 52.3%, the viability, T/C [11] was 36.8% and the viability, T/C [12] was 22.1%. For the same compound, the viability, T/C [13] was 94.2%, the viability, T/C [14] was 68.4% and the viability, T/C [15] was 53.5%. The viability, T/C [16] was 50.6%, the viability, T/C [17] was 35.9% and the viability, T/C [18] was 25.3%. It also gave a viability, T/C [19] of 101%, a viability, T/C [20] of 68% and a viability, T/C [21] of 54.3%. It also gave a viability, T/C [22] of 51.9%, a viability, T/C [23] of 33.3% and a viability, T/C [24] of 31.5%. For the same compound, the viability, T/C [25] was 85.3%, the viability, T/C [26] was 74% and the viability, T/C [27] was 53%. It also gave a viability, T/C [28] of 44.6%, a viability, T/C [29] of 31% and a viability, T/C [30] of 27.6%. The viability, T/C [31] was 88%, the viability, T/C [32] was 71.5% and the viability, T/C [33] was 60%. It also gave a viability, T/C [34] of 43.1%, a viability, T/C [35] of 34.1% and a viability, T/C [36] of 32.2%.
